Our source for the Ki values is US7956074B2, “Aryl-isoxazolo-4-yl-oxadiazole derivatives” (Hoffman-La Roche Inc., priority 2005, dated 2011).

In this test the target is T1, GABA A receptor α5β3γ2 (Homo sapiens, UniProt P18507+P31644).
T1 construct: expressed in transfected cells; host or cells: HEK293 cells, transiently transfected; membranes prepared
Kind of test: [3H]flumazenil competition binding, human GABA A α5β3γ2. The note with it: competition for [3H]flumazenil (0.5 nM) binding, HEK293 cells expressing human (transiently transfected) α5β3γ2; means of two determinations; read-out: Ki[nM] hα5. As for the experimental part: Membrane Preparation and Binding Assay
The affinity of compounds at GABA A receptor subtypes was measured by competition for [3H]flumazenil (85 Ci/mmol; Roche) binding to HEK293 cells expressing rat (stably transfected) or human (transiently transfected) receptors of composition
Cell pellets were suspended in Krebs-tris buffer (4.8 mM KCl, 1.2 mM CaCl2, 1.2 mM MgCl2, 120 mM NaCl, 15 mM Tris; pH 7.5; binding assay buffer), homogenized by polytron for ca. 20 sec on ice and centrifuged for 60 min at 4° C. (50000 g; Sorvall, rotor: SM24=20000 rpm). The cell pellets were resuspended in Krebs-tris buffer and homogenized by polytron for ca. 15 sec on ice. Protein was measured (Bradford method, Bio-Rad) and aliquots of 1 mL were prepared and stored at −80° C.
Assays were incubated to equilibrium for 1 hour at 4° C. and harvested onto GF/C uni-filters (Packard) by filtration using a Packard harvester and washing with ice-cold wash buffer (50 mM Tris; pH 7.5). After drying, filter-retained radioactivity was detected by liquid scintillation counting. Ki values were calculated using Excel-Fit (Microsoft) and are the means of two determinations.

As to `COc1cc(N2CCOCC2)ccc1-c1nnc(-c2c(-c3ccccc3)noc2Cl)o1` [Example 105, 4-{4-[5-(5-Chloro-3-phenyl-isoxazol-4-yl)-[1,3,4]oxadiazol-2-yl]-3-methoxy-phenyl}-morpholine], the inhibition constant (Ki) was determined as 27.1 nM.

On to `COc1cc(C(F)(F)F)ccc1-c1nnc(-c2c(-c3ccccc3)noc2C)o1` [Example 49, 2-(2-Methoxy-4-trifluoromethyl-phenyl)-5-(5-methyl-3-phenyl-isoxazol-4-yl)-[1,3,4]oxadiazole], for which the inhibition constant Ki was determined as 39.7 nM.

Turning to `Cc1onc(-c2ccccc2)c1-c1nnc(-c2ccc3nn[nH]c3c2)o1` [Example 25, 6-[5-(5-Methyl-3-phenyl-isoxazol-4-yl)-[1,3,4]oxadiazol-2-yl]-1H-benzotriazole], the inhibition constant (Ki) was found to be 30.9 nM.

In the case of `Cc1onc(-c2ccccc2)c1-c1nnc(-c2ccccc2OCc2ccccc2)o1` [Example 46, 2-(2-Benzyloxy-phenyl)-5-(5-methyl-3-phenyl-isoxazol-4-yl)-[1,3,4]oxadiazole], the Ki is 255 nM.

In the case of `Cc1onc(-c2ccccc2)c1-c1nnc(-c2ccc(N3CCSCC3)cc2)o1` [Example 37, 4-{4-[5-(5-Methyl-3-phenyl-isoxazol-4-yl)-[1,3,4]oxadiazol-2-yl]-phenyl}-thiomorpholine], the Ki stood at 22.9 nM.

In the case of `COc1ccc(-c2nnc(-c3c(-c4ccccc4)noc3C)o2)c(OC)n1` [Example 100, 2,6-Dimethoxy-3-[5-(5-methyl-3-phenyl-isoxazol-4-yl)-[1,3,4]oxadiazol-2-yl]-pyridine], the Ki was determined as 24 nM.

In the case of `COc1cc(N2CCSCC2)ccc1-c1nnc(-c2c(-c3ccccc3)noc2C)o1` [Example 26, 4-{3-Methoxy-4-[5-(5-methyl-3-phenyl-isoxazol-4-yl)-[1,3,4]oxadiazol-2-yl]-phenyl}-thiomorpholine], the Ki is 10.2 nM.

On to `COc1cc(N(C)C)ccc1-c1nnc(-c2c(-c3ccccc3)noc2C)o1` [Example 72, {3-Methoxy-4-[5-(5-methyl-3-phenyl-isoxazol-4-yl)-[1,3,4]oxadiazol-2-yl]-phenyl}-dimethyl-amine], for which the Ki amounted to 12 nM.

As for `Cc1onc(-c2ccccc2)c1-c1nnc(-c2ccc3c(ccn3C)c2)o1` [Example 75, 1-Methyl-5-[5-(5-methyl-3-phenyl-isoxazol-4-yl)-[1,3,4]oxadiazol-2-yl]-1H-indole], the Ki was found to be 129 nM.

With `Cc1onc(-c2ccccc2)c1-c1nnc(-c2ccc(N3CCS(=O)(=O)CC3)cc2)o1` [Example 38, 4-{4-[5-(5-Methyl-3-phenyl-isoxazol-4-yl)-[1,3,4]oxadiazol-2-yl]-phenyl}-thiomorpholine 1,1-dioxide], the Ki is 19.7 nM.

Consider `Cc1onc(-c2ccccc2)c1-c1nnc(-c2ccccn2)o1` [Example 9, 2-[5-(5-Methyl-3-phenyl-isoxazol-4-yl)-[1,3,4]oxadiazol-2-yl]-pyridine], for which the inhibitory constant (Ki) is 286 nM.

Turning to `COc1cc(N2CCOCC2)ccc1-c1nnc(-c2c(-c3ccccc3)noc2-c2ccccc2)o1` [Example 96, 4-{4-[5-(3,5-Diphenyl-isoxazol-4-yl)-[1,3,4]oxadiazol-2-yl]-3-methoxy-phenyl}-morpholine], the Ki was determined as 15.3 nM.

Take `Cc1onc(-c2ccccc2)c1-c1nnc(-c2ccncc2)o1` [Example 40, 4-[5-(5-Methyl-3-phenyl-isoxazol-4-yl)-[1,3,4]oxadiazol-2-yl]-pyridine]: the Ki stood at 179 nM.

With `COc1cc(NCCS(C)(=O)=O)c(F)cc1-c1nnc(-c2c(-c3ccccc3)noc2C)o1` [Example 127, {2-Fluoro-5-methoxy-4-[5-(5-methyl-3-phenyl-isoxazol-4-yl)-[1,3,4]oxadiazol-2-yl]-phenyl}-(2-methanesulfonyl-ethyl)-amine], the Ki worked out at 1.7 nM.

For `COc1cc(NCCN(C)C)c(F)cc1-c1nnc(-c2c(-c3ccccc3)noc2C)o1` [Example 135, N′-{2-Fluoro-5-methoxy-4-[5-(5-methyl-3-phenyl-isoxazol-4-yl)-[1,3,4]oxadiazol-2-yl]-phenyl}-N,N-dimethyl-ethane-1,2-diamine], the Ki came to 9.4 nM.

For the compound `COc1cc(C)ccc1-c1nnc(-c2c(-c3ccccc3)noc2C)o1` [Example 14, 2-(2-Methoxy-4-methyl-phenyl)-5-(5-methyl-3-phenyl-isoxazol-4-yl)-[1,3,4]oxadiazole], the inhibition constant Ki was found to be 31 nM.

On to `COc1cc(N2CCOCC2)ccc1-c1nnc(-c2c(-c3ccccc3)noc2-n2cccn2)o1` [Example 113, 4-{3-Methoxy-4-[5-(3-phenyl-5-pyrazol-1-yl-isoxazol-4-yl)-[1,3,4]oxadiazol-2-yl]-phenyl}-morpholine], for which the Ki was 7.4 nM.

Turning to `COc1cccc(-c2nnc(-c3c(-c4ccccc4)noc3C)o2)c1` [Example 3, 2-(3-Methoxy-phenyl)-5-(5-methyl-3-phenyl-isoxazol-4-yl)-[1,3,4]oxadiazole], the Ki came out at 391 nM.

For `COc1cc(N(S(C)(=O)=O)S(C)(=O)=O)ccc1-c1nnc(-c2c(-c3ccccc3)noc2C)o1` [Example 21, N-{3-Methoxy-4-[5-(5-methyl-3-phenyl-isoxazol-4-yl)-[1,3,4]oxadiazol-2-yl]-phenyl}-bis-methanesulfonyl-amine], the Ki amounted to 85 nM.

As for `COc1cc(NCCN2CCCC2)c(F)cc1-c1nnc(-c2c(-c3ccccc3)noc2C)o1` [Example 132, {2-Fluoro-5-methoxy-4-[5-(5-methyl-3-phenyl-isoxazol-4-yl)-[1,3,4]oxadiazol-2-yl]-phenyl}-(2-pyrrolidin-1-yl-ethyl)-amine], the Ki is 8.6 nM.

Regarding `Cc1onc(-c2ccccc2)c1-c1nnc(C2CCCCC2)o1` [Example 70, 2-Cyclohexyl-5-(5-methyl-3-phenyl-isoxazol-4-yl)-[1,3,4]oxadiazole], the Ki came out at 262 nM.

For `Cc1onc(-c2ccccc2)c1-c1nnc(-c2ccc(N3CCSCC3)nc2)o1` [Example 138, 4-{5-[5-(5-Methyl-3-phenyl-isoxazol-4-yl)-[1,3,4]oxadiazol-2-yl]-pyridin-2-yl}-thiomorpholine], the Ki is 31 nM.

In the case of `Cc1onc(-c2ccccc2)c1-c1nnc(-c2ccnc3ccccc23)o1` [Example 44, 4-[5-(5-Methyl-3-phenyl-isoxazol-4-yl)-[1,3,4]oxadiazol-2-yl]-quinoline], the Ki is 88.9 nM.

Regarding `COc1ccc(-c2nnc(-c3c(-c4ccccc4)noc3C)o2)cc1` [Example 5, 2-(4-Methoxy-phenyl)-5-(5-methyl-3-phenyl-isoxazol-4-yl)-[1,3,4]oxadiazole], the Ki was found to be 31.1 nM.

In the case of `Cc1onc(-c2ccccc2)c1-c1nnc(-c2ccc(N3CCCCC3)cc2)o1` [Example 47, 1-{4-[5-(5-Methyl-3-phenyl-isoxazol-4-yl)-[1,3,4]oxadiazol-2-yl]-phenyl}-piperidine], the inhibition constant (Ki) amounted to 46.9 nM.

For the compound `COc1ccccc1-c1nnc(-c2c(-c3ccccc3)noc2C)o1` [Example 4, 2-(2-Methoxy-phenyl)-5-(5-methyl-3-phenyl-isoxazol-4-yl)-[1,3,4]oxadiazole], the Ki is 16.4 nM.

With `COc1cc(NS(=O)(=O)C(C)C)ccc1-c1nnc(-c2c(-c3ccccc3)noc2C)o1` [Example 63, Propane-2-sulfonic acid {3-methoxy-4-[5-(5-methyl-3-phenyl-isoxazol-4-yl)-[1,3,4]oxadiazol-2-yl]-phenyl}-amide], the Ki worked out at 42.8 nM.
